PubChem BioAssay (NCI)
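The compound was tested at five concentrations on cells cultured in 96-well plates, with a 48-hour exposure period. GI50 marks 50% less growth. Definition used: TGI = concentration required for complete inhibition of growth.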

How the values were obtained:
Test in all cases: inhibition of tumour cell growth, NCI panel, 48 h
U251 CNS = test system: U251 CNS
NCI-H23 lung = test system: NCI-H23 lung
SF-539 CNS = test system: SF-539 CNS
NCI-H226 lung = test system: NCI-H226 lung
TK-10 renal = test system: TK-10 renal
SK-MEL-28 melanoma = test system: SK-MEL-28 melanoma
SK-OV-3 ovarian = test system: SK-OV-3 ovarian
LOX IMVI melanoma = test system: LOX IMVI melanoma
OVCAR-3 ovarian = test system: OVCAR-3 ovarian
UACC-257 melanoma = test system: UACC-257 melanoma

Row | SMILES | TGI (U251 CNS) [µM] | TGI (NCI-H23 lung) [µM] | TGI (SF-539 CNS) [µM] | TGI (NCI-H226 lung) [µM] | TGI (TK-10 renal) [µM] | TGI (SK-MEL-28 melanoma) [µM] | TGI (SK-OV-3 ovarian) [µM] | TGI (LOX IMVI melanoma) [µM] | TGI (OVCAR-3 ovarian) [µM] | TGI (UACC-257 melanoma) [µM] | GI50 (UACC-257 melanoma) [µM] | GI50 (U251 CNS) [µM] | GI50 (SF-539 CNS) [µM] | GI50 (NCI-H226 lung) [µM] | GI50 (TK-10 renal) [µM] | GI50 (SK-MEL-28 melanoma) [µM] | GI50 (SK-OV-3 ovarian) [µM] | GI50 (LOX IMVI melanoma) [µM] | GI50 (OVCAR-3 ovarian) [µM] | GI50 (NCI-H23 lung) [µM]
1 | COC(=O)[C@@]12C3=NO[C@]1(C(=O)OC)C(O[Si](C)(C)C(C)(C)C)C1OC(C)(C)OC1[C@@H]2[C@@H](OCc1ccccc1)CC3 (some centres undefined) | > 100 | > 100 | > 100 | > 100 | > 100 | > 100 | > 100 | > 100 | > 100 | – | – | – | – | – | – | – | – | – | – | –
2 | Cc1cc(N(CCC#N)CCC#N)ccc1N=Nc1ccc([N+](=O)[O-])cc1 | 36.1 | > 100 | > 100 | > 100 | 83.2 | > 100 | > 10 | 80.6 | > 100 | > 100 | – | – | – | – | – | – | – | – | – | –
3 | COc1cc(-c2[nH]ncc2CCCC(=O)Nc2ccccc2[N+](=O)[O-])ccc1O | > 100 | > 100 | > 100 | > 100 | > 100 | > 100 | > 100 | > 100 | – | > 100 | – | – | – | – | – | – | – | – | – | –
4 | CCOC(=O)C1=C(O)CSC1=Nc1ccc(N=C2SCC(O)=C2C(=O)OCC)cc1 | 63 | – | 43 | 44 | 94.7 | 40.8 | 65.3 | 32.1 | > 100 | 75.5 | – | – | – | – | – | – | – | – | – | –
5 | CC/C(=C(/CC)c1ccc(OP(=O)([O-])[O-])cc1)c1ccc(OP(=O)([O-])[O-])cc1.N.N.N.N.[Pt+4].[Pt+4] | 2.12 | – | – | 4.96 | > 100 | 6.28 | 17 | 11.9 | 8.89 | 10.1 | 2.99 | 0.594 | 3.51 | 2.31 | 4.73 | 2.07 | 3.85 | 2.08 | 2.49 | –
6 | COC(=O)C1(C)CCc2c(ccc3ccccc23)C1=O (centres undefined) | > 100 | > 100 | > 100 | – | 95.7 | > 100 | > 100 | > 100 | > 100 | 55.2 | – | – | – | – | – | – | – | – | – | –
7 | OCCC#Cc1ccccc1C#Cc1ccccc1 | > 100 | 39.9 | 27 | 33.2 | 23.4 | 60.9 | 39.4 | – | – | 45.9 | 22.4 | 35 | 12.7 | 15.2 | 11.3 | 21.7 | 17.3 | – | – | 18.2
8 | CCOC(=O)C12CN(C34CC5CC(CC(C5)C3)C4)CC(C(=O)OCC)(C1=O)C(c1ccccc1)OC2c1ccccc1 (centres undefined) | > 100 | > 100 | – | > 100 | > 100 | > 100 | > 100 | > 100 | > 100 | > 100 | – | – | – | – | – | – | – | – | – | –
9 | N/C(=N\N=C=C1C(=O)Nc2ccc(F)cc21)NO | > 100 | > 100 | > 100 | – | > 100 | > 100 | > 100 | > 100 | > 100 | > 100 | – | – | – | – | – | – | – | – | – | –
10 | Nc1cc2c3c(cccc3c1)C(=O)N(CCN1CCN(CCN3C(=O)c4cccc5cc(N)cc(c45)C3=O)CC1)C2=O | > 100 | > 100 | > 100 | > 100 | > 100 | > 100 | > 100 | – | > 100 | > 100 | – | – | – | – | – | – | – | – | – | –
11 | CCCCCNC(=O)C1C(=O)N(CCCCC)C(=O)/C1=N\N (centres undefined) | > 100 | > 100 | > 100 | – | > 100 | > 100 | – | – | > 100 | > 100 | – | – | – | – | – | – | – | – | – | –
12 | Nc1ccc(C(=O)O)c2[nH]c3ccccc3c(=O)c12 | > 100 | – | > 100 | – | > 100 | – | > 100 | > 100 | – | > 100 | – | – | – | – | – | – | – | – | – | –
13 | CC[C@]12C=CCN3CC[C@]4(C(=C(C(=O)OC)C1)Nc1ccccc14)[C@@H]32 | 16.4 | 17.7 | 10.1 | – | 17.6 | 17.9 | – | 4.13 | 7.51 | 26.5 | 5.06 | 3.64 | 3.09 | – | 4.86 | 4.49 | – | 1.94 | 2.45 | 4.37
14 | CC(=O)OCC1OC(n2cnc3c(I)nc(I)nc32)C(OC(C)=O)C1OC(C)=O (centres undefined) | 22.9 | 16.7 | 29.6 | 35.5 | 33.6 | 28.5 | – | 29.4 | 20.1 | 27.5 | – | – | – | – | – | – | – | – | – | –
15 | Clc1ccc(C2=NN(c3ccccc3)C3c4cc(Br)ccc4OCC23)cc1 (centres undefined) | > 100 | > 100 | > 100 | – | > 100 | > 100 | > 100 | > 100 | > 100 | > 100 | – | – | – | – | – | – | – | – | – | –
16 | COC(=O)C1(c2ccc(OC)cc2)NC(c2ccccc2)C2C(=O)N(c3ccc(OC)cc3)C(=O)C21 (centres undefined) | > 100 | > 100 | > 100 | – | > 100 | > 100 | > 100 | > 100 | – | > 100 | – | – | – | – | – | – | – | – | – | –
17 | Cn1cc(-c2nonc2-c2cn(C)c3ccc(Br)cc23)c2ccccc21 | > 100 | > 100 | 6.13 | > 100 | > 100 | > 100 | > 100 | – | 8.61 | – | – | 3.93 | 2.19 | 4.61 | 5.33 | > 100 | 7.52 | – | 2.8 | 4.72
18 | Cc1ccc(C)c(NC(=O)CCC(=O)CC(=O)C(C)(C)C)c1 | > 100 | > 100 | > 100 | – | > 100 | > 100 | > 100 | > 100 | > 100 | > 100 | – | – | – | – | – | – | – | – | – | –
19 | CNS(=O)(=O)NN(C)S(=O)(=O)c1ccc(C)cc1 | – | > 100 | > 100 | – | > 100 | > 100 | > 100 | – | > 100 | > 100 | – | – | – | – | – | – | – | – | – | –
20 | COc1ccc(Br)c(CCCCC(=O)O)c1 | > 100 | > 100 | > 100 | – | > 100 | > 100 | > 100 | > 100 | > 100 | > 100 | – | – | – | – | – | – | – | – | – | –
21 | COC(=O)C12C3C=CC(O3)C1C1C=CC2O1 (centres undefined) | > 100 | > 100 | > 100 | > 100 | > 100 | > 100 | > 100 | – | > 100 | > 100 | – | – | – | – | – | – | – | – | – | –
22 | O=[N+]([O-])c1ccc(N=Nc2c(O)[nH]c3ccc(Br)cc23)c([N+](=O)[O-])c1 | 16.3 | 8.28 | – | – | 37.8 | 10.3 | 34.7 | 3.17 | 19.3 | 15.6 | – | – | – | – | – | – | – | – | – | –
